One test has as its target KRAS G12D (Homo sapiens (Human), UniProt P01116+P62937, G12D). In words: Ras-Raf (BRAF RBD) disruption / FRET / MOA assay, KRAS G12D. It counts as biochemical. As to conditions: Ras-Raf disruption/FRET/MOA assay; class symbols; read-out: KRAS G12D FRET data IC50. The method in brief:
(§1)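 Ternary complex formation (Ras–compound–cyclophilin A) displacing BRAF RBD, monitored by TR-FRET. Three hours at 25° C with compound (top 30 μM final), then 1.5 h with the labelled antibodies. Lower ratio than DMSO indicates disruption; IC50 reported.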

In the next test the target is KRAS G12S (Homo sapiens (Human), UniProt P01116+P62937, G12S). As to the kind of experiment: Ras-Raf (BRAF RBD) disruption / FRET / MOA assay, KRAS G12S. The class given is biochemical. The note with it: Ras-Raf disruption/FRET/MOA assay; class symbols; read-out: KRAS G12S FRET data IC50. The method in brief: as §1
KRAS G12S, sequence (P01116-2 other isoform, or with tags, fused parts or gaps G12S): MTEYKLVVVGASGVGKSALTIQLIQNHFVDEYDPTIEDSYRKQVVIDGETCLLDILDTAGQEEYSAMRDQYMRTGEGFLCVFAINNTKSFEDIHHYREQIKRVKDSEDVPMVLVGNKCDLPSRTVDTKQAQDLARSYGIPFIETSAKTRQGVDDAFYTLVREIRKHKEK
KRAS G12S, sequence (P62937 whole entry): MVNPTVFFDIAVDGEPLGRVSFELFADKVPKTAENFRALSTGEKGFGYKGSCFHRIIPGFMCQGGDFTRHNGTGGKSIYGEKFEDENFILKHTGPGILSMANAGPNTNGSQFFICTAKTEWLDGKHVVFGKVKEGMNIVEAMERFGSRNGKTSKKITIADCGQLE

Data on 21 compounds can be found in patent US11566007B2, “Ras inhibitors” (Revolution Medicines, Inc., priority 2019, dated 2023).

Values joined by “and” are separate entries in the source; they are usually repeats but may differ in a detail not shown here. Equal entries are not always repeated.

KRAS G12D, sequence (P01116-2 other isoform, or with tags, fused parts or gaps G12D): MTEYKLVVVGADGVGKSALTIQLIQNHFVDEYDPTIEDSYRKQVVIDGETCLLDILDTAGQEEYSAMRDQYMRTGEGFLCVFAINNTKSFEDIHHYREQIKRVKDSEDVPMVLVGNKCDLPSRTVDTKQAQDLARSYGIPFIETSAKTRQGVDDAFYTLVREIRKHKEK
KRAS G12D, sequence (P62937 whole entry): as the sequence (P62937 whole entry) above

For orientation: IC50 means the midpoint of a concentration-inhibition curve. As to `CCn1c(-c2cccnc2[C@H](C)OC)c2c3cc(ccc31)-c1cccc(c1)C[C@H](NC(=O)[C@H](C(C)C)N1CC[C@]3(CCN(C(=O)C#C[C@@H]4COCCN4C)C3)C1=O)C(=O)N1CCC[C@H](N1)C(=O)OCC(C)(C)C2` (atropisomer, axis not shown) [Example A569], the results for the half-inhibitory concentration (IC50) at KRAS G12D and at KRAS G12S were above 10000 nM and 1000 to 10000 nM, respectively.
Consider `C=CC(=O)N1CC[C@H](C(=O)N(C)[C@H](C(=O)N[C@H]2Cc3cccc(c3)-c3ccc4c(c3)c(c(-c3cccnc3[C@H](C)OC)n4CC)CC(C)(C)COC(=O)[C@@H]3CCCN(N3)C2=O)[C@@H](C)C(F)(F)F)C1` (atropisomer, axis not shown) [Example A640], for which the IC50 on KRAS G12D and at KRAS G12S was 1000 to 10000 nM in each case.
As to `C=CC(=O)N(C)CCN1CCN(C(=O)N(C)[C@H](C(=O)N[C@H]2Cc3cccc(c3)-c3ccc4c(c3)c(c(-c3cccnc3[C@H](C)OC)n4CC)CC(C)(C)COC(=O)[C@@H]3CCCN(N3)C2=O)C(C)C)C[C@@H]1C` (atropisomer, axis not shown) [Example A570], the half-inhibitory concentration (IC50) at KRAS G12D is 1000 to 10000 nM; at KRAS G12S it was 100 to 1000 nM.
Turning to `CCn1c(-c2cccnc2[C@H](C)OC)c2c3cc(ccc31)-c1csc(n1)C[C@H](NC(=O)[C@H](C(C)C)N(C)C(=O)N1CCN(C(=O)/C=C/CN(C)C)C[C@@H]1C)C(=O)N1CCC[C@H](N1)C(=O)OCC(C)(C)C2` (atropisomer, axis not shown) [Example A709], the IC50 on KRAS G12D and on KRAS G12S was 100 to 1000 nM each time.
As to `CCn1c(-c2cccnc2[C@H](C)OC)c2c3cc(ccc31)-c1csc(n1)C[C@H](NC(=O)C[C@@H](C)OC1CN(C(=O)C#CC(C)(C)N(C)C)C1)C(=O)N1CCC[C@H](N1)C(=O)OCC(C)(C)C2` (atropisomer, axis not shown) [Example A638], the half-maximal inhibitory concentration (IC50) on KRAS G12D was above 10000 nM; at KRAS G12S it was 1000 to 10000 nM.
For `C=CC(=O)N(C)C[C@H]1CCN1C(=O)N(C)[C@H](C(=O)N[C@H]1Cc2nc(cs2)-c2ccc3c(c2)c(c(-c2cccnc2[C@H](C)OC)n3CC)CC(C)(C)COC(=O)[C@@H]2CCCN(N2)C1=O)C(C)C` (atropisomer, axis not shown) [Example A369], in that order: 1000 to 10000 nM and 100 to 1000 nM.
Take `CCn1c(-c2cccnc2[C@H](C)OC)c2c3cc(ccc31)-c1csc(n1)C[C@H](NC(=O)[C@H](C(C)C)N(C)C(=O)N(C)C1CN(C(=O)/C=C/[C@H]3CCCN3C)C1)C(=O)N1CCC[C@H](N1)C(=O)OCC(C)(C)C2` (atropisomer, axis not shown) [Example A729]: the IC50 on KRAS G12D was in the range of 1000 to 10000 nM; on KRAS G12S, 100 to 1000 nM.
On to `C=CC(=O)N1CC[C@]2(COCCN2C(=O)N(C)[C@H](C(=O)N[C@H]2Cc3nc(cs3)-c3ccc4c(c3)c(c(-c3cccnc3[C@H](C)OC)n4CC)CC(C)(C)COC(=O)[C@@H]3CCCN(N3)C2=O)C(C)C)C1` (atropisomer, axis not shown) [Example A676], for which the IC50 on KRAS G12D and at KRAS G12S was 1000 to 10000 nM in each case.
`C=CC(=O)N1CC[C@H](C(=O)N(C)[C@H](C(=O)N[C@H]2Cc3nc(n(C)n3)-c3ccc4c(c3)c(c(-c3cccnc3[C@H](C)OC)n4CC)CC(C)(C)COC(=O)[C@@H]3CCCN(N3)C2=O)C(C)C)C1` (atropisomer, axis not shown) [Example A314]: the IC50 on KRAS G12D and at KRAS G12S was 1000 to 10000 nM in each case.
Turning to `C=CC(=O)N1CC2(CCN2C(=O)N(C)[C@H](C(=O)N[C@H]2Cc3cccc(n3)-c3ccc4c(c3)c(c(-c3cccnc3[C@H](C)OC)n4CC)CC(C)(C)COC(=O)[C@@H]3CCCN(N3)C2=O)C(C)C)C1` (atropisomer, axis not shown) [Example A636], the values for the IC50 at KRAS G12D and on KRAS G12S were 1000 to 10000 nM and 100 to 1000 nM, respectively.
For `C=CC(=O)N1CC[C@H](C(=O)N2CCCCC[C@H]2C(=O)N[C@H]2Cc3nc(cs3)-c3ccc4c(c3)c(c(-c3cccnc3[C@H](C)OC)n4CC)CC(C)(C)COC(=O)[C@@H]3CCCN(N3)C2=O)C1` (atropisomer, axis not shown) [Example A495], in that order: above 10000 nM and 1000 to 10000 nM.
Consider `C=CC(=O)N1CCC2(CCN(C(=O)N(C)[C@H](C(=O)N[C@H]3Cc4cccc(c4)-c4ccc5c(c4)c(c(-c4cccnc4[C@H](C)OC)n5CC)CC(C)(C)COC(=O)[C@@H]4CCCN(N4)C3=O)C(C)C)CC2)C1` (atropisomer, axis not shown) [Example A554], for which the figures for the IC50 at KRAS G12D and at KRAS G12S were 1000 to 10000 nM and 100 to 1000 nM, respectively.
For `CCn1c(-c2cccnc2[C@H](C)OC)c2c3cc(ccc31)-c1cccc(c1)C[C@H](NC(=O)[C@@H](COC1CN(C(=O)C#CC(C)(C)O)C1)C(C)C)C(=O)N1CCC[C@H](N1)C(=O)OCC(C)(C)C2` (atropisomer, axis not shown) [Example A708], in that order: above 10000 nM and above 10000 nM.
For the compound `C=CC(=O)N(C)[C@H]1CN(C(=O)N(C)[C@H](C(=O)N[C@H]2Cc3nc(cs3)-c3ccc4c(c3)c(c(-c3cccnc3[C@H](C)OC)n4CC)CC(C)(C)COC(=O)[C@@H]3CCCN(N3)C2=O)C(C)C)C[C@@H]1F` (atropisomer, axis not shown) [Example A632], the IC50 fell in the range of 1000 to 10000 nM on KRAS G12D and 100 to 1000 nM on KRAS G12S.
For `C=CC(=O)N1CC[C@H](C(=O)N(C)[C@H](C(=O)N[C@H]2Cc3cc(O)cc(c3)-c3ccc4c(c3)c(c(-c3cccnc3[C@H](CC)OC)n4CC)CC(C)(C)COC(=O)[C@@H]3CCCN(N3)C2=O)C(C)C)C1` (atropisomer, axis not shown) [Example A181], the half-inhibitory concentration (IC50) was 1000 to 10000 nM and > 10000 nM on KRAS G12D; 1000 to 10000 nM and 10 to 100 nM on KRAS G12S.
On to `C=CC(=O)N1CCC2(CCCN(C(=O)N(C)[C@H](C(=O)N[C@H]3Cc4nc(cs4)-c4ccc5c(c4)c(c(-c4cccnc4[C@H](C)OC)n5CC)CC(C)(C)COC(=O)[C@@H]4CCCN(N4)C3=O)C(C)C)C2)CC1` (atropisomer, axis not shown) [Example A696], for which the half-inhibitory concentration (IC50) at KRAS G12D and on KRAS G12S was 100 to 1000 nM in each case.
As for `CCn1c(-c2cccnc2[C@H](C)OC)c2c3cc(ccc31)-c1csc(n1)C[C@H](NC(=O)CCO[C@H]1CCN(C(=O)C#CC(C)(C)N3CCC3)C1)C(=O)N1CCC[C@H](N1)C(=O)OCC(C)(C)C2` (atropisomer, axis not shown) [Example A381], the IC50 on KRAS G12D and on KRAS G12S was 1000 to 10000 nM throughout.
Take `C=CC(=O)N1CC[C@H](C(=O)N(C)[C@H](C(=O)N[C@H]2Cc3cc(O)cc(c3)-c3ccc4c(c3)c(c(-c3csc(N(C)C)n3)n4CC)CC(C)(C)COC(=O)[C@@H]3CCCN(N3)C2=O)C(C)C)C1` [Example A303]: the half-inhibitory concentration (IC50) on KRAS G12D and at KRAS G12S was above 10000 nM throughout.
Regarding `C=CC(=O)N1CCO[C@]2(CCN(C(=O)N(C)[C@H](C(=O)N[C@H]3Cc4nc(cs4)-c4ccc5c(c4)c(c(-c4cccnc4[C@H](C)OC)n5CC(F)(F)F)CC(C)(C)COC(=O)[C@@H]4CCCN(N4)C3=O)C(C)C)C2)C1` (atropisomer, axis not shown) [Example A593], the IC50 at KRAS G12D and at KRAS G12S was 1000 to 10000 nM throughout.
For the compound `C=CC(=O)C1CC[C@H](C(=O)N(C)[C@H](C(=O)N[C@H]2Cc3nsc(n3)-c3ccc4c(c3)c(c(-c3cccnc3[C@H](C)OC)n4CC)CC(C)(C)COC(=O)[C@@H]3CCCN(N3)C2=O)C(C)C)C1` (stereo partly drawn) [Example A694], the IC50 at KRAS G12D and at KRAS G12S was 1000 to 10000 nM each time.
Consider `C=CC(=O)N1CC[C@H](C(=O)N(C)[C@H](C(=O)N[C@H]2Cc3cc(O)cc(c3)-c3ccc4c(c3)c(c(-c3cccnc3)n4[C@H](C)C#N)CC(C)(C)COC(=O)[C@@H]3CCCN(N3)C2=O)C(C)C)C1` [Example A193], for which the 50% inhibitory concentration (IC50) was above 10000 nM on KRAS G12D and 100 to 1000 nM at KRAS G12S.
